In brackets after ≈: the same amount, converted by molar mass. Entries after “also recorded” stand apart in the source; their conditions may differ.
Legend:
Shigella flexneri = assay: microbe, parasite or virus in culture; settings: read-out: Diameter of Zone of Inhibition
Sarcina lutea = assay: Disc diffusion antibacterial assay; settings: Micrococcus luteus, read-out: Diameter of Zone of Inhibition
Staphylococcus aureus = assay: Disc diffusion antibacterial assay; settings: read-out: Diameter of Zone of Inhibition
Klebsiella spp. = assay: Disc diffusion antibacterial assay; settings: read-out: Diameter of Zone of Inhibition
Salmonella typhi = assay: Disc diffusion antibacterial assay; assay type: cell-based; settings: Salmonella enterica, read-out: Diameter of Zone of Inhibition
Escherichia coli = assay: Disc diffusion antibacterial assay; settings: read-out: Diameter of Zone of Inhibition
[1] = DPPH free radical scavenging assay; assay type: biochemical; settings: for DPPH scavenging activity: at 200 μg/mL; for IC50, DPPH free radical scavenging: from linear regression equation, 200 to 0.78125 μg/mL, 1 h in dark
Experimental: To evaluate the free radical scavenging abilities of isolated phytochemicals on 1, 1-diphenyl-2-picrylhydrazyl, 2.0 mL of methanol solution of the compounds at serially diluted various concentrations (200 μg/mL to 0.78125 μg/mL) were mixed with 3.0 mL of a DPPH methanol solution (20 μg/mL) (DPPH). The mixture was kept in dark for 1 h. The antioxidant properties were assessed by comparing the decolorizing of a purple DPPH methanol solution by the compounds to that of butylated hydroxy anisole (BHA). (1) % Inhibition of free radical DPPH=1−Absorbance ofsample/Absorbance of the control reaction×100

[2] = test system: two Gram-positive and four Gram-negative bacteria; assay: Disc diffusion antibacterial assay, whole panel; assay type: cell-based; settings: 100 μg/disc
[3] = Brine shrimp lethality bioassay (cytotoxicity); settings: in vivo, other: exposure of nauplii in simulated seawater, pH 8, from linear regression, 400–0.78125 μg/mL
Experimental: The brine shrimp lethality bioassay was conducted to evaluate the cytotoxic potential of the isolated pure compounds. An amount of 38 g of NaCl salt was dissolved in 1000 mL of distilled water to simulate seawater, along with NaOH to keep the pH constant (8.0). Brine shrimp eggs were hatched in artificial seawater to produce nauplii. Isolated compounds were dissolved in DMSO then diluted with simulated seawater into a series of concentrations (400–0.78125 μg/mL). As the reference standard, vincristine sulfate was employed at various doses (400–0.78125 μg/mL), and DMSO served as the negative control. The nauplii were counted visually, and then 5 mL of simulated saltwater was added to vials of the mixture at room temperature. (2) Mortality%=Number of nauplii death/Number of nauplii taken×100

Structure (SMILES)	zone of inhibition at 100 µg/disc (Shigella flexneri)	zone of inhibition at 100 µg/disc (Sarcina lutea)	zone of inhibition at 100 µg/disc (Staphylococcus aureus)	zone of inhibition at 100 µg/disc (Klebsiella spp.)	zone of inhibition at 100 µg/disc (Salmonella typhi)	zone of inhibition at 100 µg/disc (Escherichia coli)	DPPH scavenging activity [1]	IC50, DPPH free radical scavenging [1]	antibacterial spectrum (in words) [2]	LC50 [3]
CC[C@H]1OC(=O)[C@H](C)[C@@H](O[C@H]2C[C@@](C)(OC)[C@@H](O)[C@H](C)O2)[C@H](C)[C@@H](O[C@@H]2O[C@H](C)C[C@H](N(C)C)[C@H]2O)[C@](C)(O)C[C@@H](C)CN(C)[C@H](C)[C@@H](O)[C@]1(C)O [Azithromycin]	41 mm	40 mm	39 mm	37 mm	34 mm	40 mm	–	–	–	–
Cc1cc(C(C)(C)C)c(O)c(C(C)(C)C)c1 [BHT, Butylated Hydroxytoluene]	–	–	–	–	–	–	96.48%	6.06 µg/mL (≈ 27.5 µM)	–	–
COc1cc(CC(C)CO)ccc1O (stereo not drawn) [Compound 1, 4-(3-hydroxy-2-methylpropyl)-2-methoxyphenol]	–	20 mm	21 mm	–	18 mm	19 mm	92.96%	9.97 µg/mL (≈ 50.8 µM)	broad-spectrum antibacterial activity	1.08 µg/mL (≈ 5.5 µM)
Cc1c[nH]c2ccccc12 [Compound 2, 3-methyl-1H-indole]	–	19 mm	17 mm	–	–	–	–	12.37 µg/mL (≈ 94.3 µM)	the most active against Staphylococcus aureus; also recorded: inhibited only Gram-positive bacteria	1.02 µg/mL (≈ 7.78 µM)
CC[C@H](/C=C/[C@@H](C)[C@H]1CC[C@H]2[C@@H]3CC=C4C[C@@H](O)CC[C@]4(C)[C@H]3CC[C@]12C)C(C)C [Compound 4, Stigmasterol]	–	17 mm	16 mm	–	–	–	–	–	inhibited only Gram-positive bacteria	1.92 µg/mL (≈ 4.65 µM)
CC[C@H](CC[C@@H](C)[C@H]1CC[C@H]2[C@@H]3CC=C4C[C@@H](O)CC[C@]4(C)[C@H]3CC[C@]12C)C(C)C [Compound 5, β-sitosterol]	–	15 mm	17 mm	–	–	–	–	–	inhibited only Gram-positive bacteria	1.37 µg/mL (≈ 3.3 µM)
C[C@H]1COc2c(N3CCN(C)CC3)c(F)cc3c(=O)c(C(=O)O)cn1c23 [Levofloxacin]	41 mm	39 mm	40 mm	38 mm	36 mm	42 mm	–	–	–	–
CN(C)[C@@H]1C(O)=C(C(N)=O)C(=O)[C@@]2(O)C(O)=C3C(=O)c4c(O)cccc4[C@@](C)(O)[C@H]3C[C@@H]12 [Tetracycline]	38 mm	38 mm	37 mm	39 mm	41 mm	41 mm	–	–	–	–
CC[C@]1(O)C[C@H]2CN(CCc3c([nH]c4ccccc34)[C@@](C(=O)OC)(c3cc4c(cc3OC)N(C=O)[C@H]3[C@@](O)(C(=O)OC)[C@H](OC(C)=O)[C@]5(CC)C=CCN6CC[C@]43[C@@H]65)C2)C1 [VS, Vincristine Sulphate]	–	–	–	–	–	–	–	–	–	0.91 µg/mL
CN[C@H](CC(C)C)C(=O)N[C@H]1C(=O)N[C@@H](CC(N)=O)C(=O)N[C@H]2C(=O)N[C@H]3C(=O)N[C@H](C(=O)N[C@H](C(=O)O)c4cc(O)cc(O)c4-c4cc3ccc4O)[C@H](O)c3ccc(c(Cl)c3)Oc3cc2cc(c3O[C@@H]2O[C@H](CO)[C@@H](O)[C@H](O)[C@H]2O[C@H]2C[C@](C)(N)[C@H](O)[C@H](C)O2)Oc2ccc(cc2Cl)[C@H]1O [Vancomycin]	38 mm	42 mm	41 mm	43 mm	39 mm	42 mm	–	–	–	–
